According to article PMC5218480 (PLoS ONE, 2017):

Tested on: MV-4-11 cells
Assay: Gene expression microarray analysis (Affymetrix PrimeView) and GSEA
Type: cell-based, human
Parameters: RFU PODN (11730768_x_at) / Fold change /veh PODN (11730768_x_at) / RFU LINC00158 (11744669_a_at) / Fold change /veh LINC00158 (11744669_a_at) / RFU DUSP10 (11751237_a_at) / Fold change /veh DUSP10 (11751237_a_at) / RFU ID3 (11757404_x_at) / Fold change /veh ID3 (11757404_x_at) / RFU PLEKHG5 (11737974_s_at) / Fold change /veh PLEKHG5 (11737974_s_at) / RFU LRRC4B (11730491_at) / Fold change /veh LRRC4B (11730491_at) / RFU GIMAP4 (11747438_a_at) / Fold change /veh GIMAP4 (11747438_a_at) / RFU KRT8 (11758183_x_at) / Fold change /veh KRT8 (11758183_x_at) / RFU CNN1 (11734310_a_at) / Fold change /veh CNN1 (11734310_a_at) / RFU VPS37D (11726825_at) / Fold change /veh VPS37D (11726825_at) / RFU C10orf10 (11716522_x_at) / Fold change /veh C10orf10 (11716522_x_at) / RFU KIR2DL2 /// KIR2DL4 /// KIR2DL5A /// KIR2DL5B /// KIR2DS1 /// KIR2DS2 /// KIR2DS3 /// KIR2DS4 /// KIR3DL3 /// KIR3DL3 /// KIR3DS1 (11738374_at) / Fold change /veh KIR2DL2 /// KIR2DL4 /// KIR2DL5A /// KIR2DL5B /// KIR2DS1 /// KIR2DS2 /// KIR2DS3 /// KIR2DS4 /// KIR3DL3 /// KIR3DL3 /// KIR3DS1 (11738374_at) / RFU C1QL1 (11718748_at) / Fold change /veh C1QL1 (11718748_at) / RFU TMPRSS4 (11747572_a_at) / Fold change /veh TMPRSS4 (11747572_a_at) / RFU HAMP (11756126_x_at) / Fold change /veh HAMP (11756126_x_at) / RFU RNFT2 (11725882_a_at) / Fold change /veh RNFT2 (11725882_a_at) / RFU NR4A2 (11747474_a_at) / Fold change /veh NR4A2 (11747474_a_at) / RFU ABCC12 (11746883_a_at) / Fold change /veh ABCC12 (11746883_a_at) / RFU TMEM136 (11760407_x_at) / Fold change /veh TMEM136 (11760407_x_at) / RFU CLDN22 /// WWC2 (11732394_at) / Fold change /veh CLDN22 /// WWC2 (11732394_at) / RFU HLA-DPB1 (11760878_x_at) / Fold change /veh HLA-DPB1 (11760878_x_at) / RFU SPINT1 (11716480_a_at) / Fold change /veh SPINT1 (11716480_a_at) / RFU GAP43 (11754022_s_at) / Fold change /veh GAP43 (11754022_s_at) / RFU A4GNT (11735810_at) / Fold change /veh A4GNT (11735810_at) / RFU PRB3 (11715151_x_at) / Fold change /veh PRB3 (11715151_x_at) / RFU TUBB4B (11761932_at) / Fold change /veh TUBB4B (11761932_at) / RFU CAPN14 (11732068_a_at) / Fold change /veh CAPN14 (11732068_a_at) / RFU TMCC2 (11721928_a_at) / Fold change /veh TMCC2 (11721928_a_at) / RFU IRGQ (11745062_a_at) / Fold change /veh IRGQ (11745062_a_at) / RFU FAM174B (11720279_a_at) / Fold change /veh FAM174B (11720279_a_at) / RFU TMPRSS4 (11748680_a_at) / Fold change /veh TMPRSS4 (11748680_a_at) / RFU FAM212B (11763350_a_at) / Fold change /veh FAM212B (11763350_a_at) / RFU PLEKHG5 (11743358_a_at) / Fold change /veh PLEKHG5 (11743358_a_at) / RFU ZSCAN30 (11745921_a_at) / Fold change /veh ZSCAN30 (11745921_a_at) / RFU CMKLR1 (11741424_a_at) / Fold change /veh CMKLR1 (11741424_a_at) / RFU LOC101060620 /// MAPK8IP1 (11723275_at) / Fold change /veh LOC101060620 /// MAPK8IP1 (11723275_at) / RFU SPTSSB (11747773_x_at) / Fold change /veh SPTSSB (11747773_x_at) / RFU PRSS12 (11739890_at) / Fold change /veh PRSS12 (11739890_at) / RFU BIN1 (11741810_x_at) / Fold change /veh BIN1 (11741810_x_at) / RFU WNT11 (11732464_a_at) / Fold change /veh WNT11 (11732464_a_at) / RFU C10orf10 (11716521_a_at) / Fold change /veh C10orf10 (11716521_a_at) / RFU C5orf56 (11738089_at) / Fold change /veh C5orf56 (11738089_at) / RFU CYB561 (11721691_x_at) / Fold change /veh CYB561 (11721691_x_at) / RFU ANKRD19P (11752326_a_at) / Fold change /veh ANKRD19P (11752326_a_at) / RFU OR2T12 /// OR2T33 /// OR2T8 (11738714_s_at) / Fold change /veh OR2T12 /// OR2T33 /// OR2T8 (11738714_s_at) / RFU VCAN (11748164_a_at) / Fold change /veh VCAN (11748164_a_at) / RFU JSRP1 (11732532_at) / Fold change /veh JSRP1 (11732532_at) / RFU KRTAP10-11 (11738290_x_at) / Fold change /veh KRTAP10-11 (11738290_x_at) / RFU MYO3A (11730013_a_at) / Fold change /veh MYO3A (11730013_a_at) / RFU EBF3 (11725865_a_at) / Fold change /veh EBF3 (11725865_a_at) / RFU CAMK2N1 (11719241_x_at) / Fold change /veh CAMK2N1 (11719241_x_at) / RFU C5orf56 (11738088_a_at) / Fold change /veh C5orf56 (11738088_a_at) / RFU OLFML3 (11715873_a_at) / Fold change /veh OLFML3 (11715873_a_at) / RFU LOC100653217 /// NTM (11731650_a_at) / Fold change /veh LOC100653217 /// NTM (11731650_a_at) / RFU MAPK11 (11762145_a_at) / Fold change /veh MAPK11 (11762145_a_at) / RFU FIZ1 (11724087_x_at) / Fold change /veh FIZ1 (11724087_x_at) / RFU OASL (11726364_x_at) / Fold change /veh OASL (11726364_x_at) / RFU SOX15 (11748057_x_at) / Fold change /veh SOX15 (11748057_x_at) / RFU CD79A (11719716_a_at) / Fold change /veh CD79A (11719716_a_at) / RFU HIST1H1D (11736915_at) / Fold change /veh HIST1H1D (11736915_at) / RFU CASKIN2 (11723855_a_at) / Fold change /veh CASKIN2 (11723855_a_at) / RFU LOC730098 (11760151_x_at) / Fold change /veh LOC730098 (11760151_x_at) / RFU OR4N2 (11742367_at) / Fold change /veh OR4N2 (11742367_at) / RFU PRRT2 (11749266_a_at) / Fold change /veh PRRT2 (11749266_a_at) / RFU SNX32 (11753110_a_at) / Fold change /veh SNX32 (11753110_a_at) / RFU CDHR5 (11726645_a_at) / Fold change /veh CDHR5 (11726645_a_at) / RFU RCAN1 (11760418_a_at) / Fold change /veh RCAN1 (11760418_a_at) / RFU FAM167A (11723789_a_at) / Fold change /veh FAM167A (11723789_a_at) / RFU FAM26E (11764081_at) / Fold change /veh FAM26E (11764081_at) / RFU ISYNA1 (11749810_s_at) / Fold change /veh ISYNA1 (11749810_s_at) / RFU ACY1 (11761880_at) / Fold change /veh ACY1 (11761880_at) / RFU 11764098_at / Fold change /veh 11764098_at / RFU SAMD14 (11745864_x_at) / Fold change /veh SAMD14 (11745864_x_at) / RFU NPB (11741838_a_at) / Fold change /veh NPB (11741838_a_at) / RFU TMPRSS6 (11731388_a_at) / Fold change /veh TMPRSS6 (11731388_a_at) / RFU KRTAP10-2 (11738614_at) / Fold change /veh KRTAP10-2 (11738614_at) / RFU ARHGAP8 /// PRR5-ARHGAP8 (11727945_x_at) / Fold change /veh ARHGAP8 /// PRR5-ARHGAP8 (11727945_x_at) / RFU KRTAP5-7 /// NADSYN1 (11734609_at) / Fold change /veh KRTAP5-7 /// NADSYN1 (11734609_at) / RFU RASL12 (11751679_a_at) / Fold change /veh RASL12 (11751679_a_at) / RFU CDKN2B (11736163_a_at) / Fold change /veh CDKN2B (11736163_a_at) / RFU PRF1 (11729649_at) / Fold change /veh PRF1 (11729649_at) / RFU, ZNF638 /// ZNF638-IT1 / Fold change vs veh, ZNF638 /// ZNF638-IT1 / RFU, PANK3 / Fold change vs veh, PANK3 / RFU, SH3YL1 / Fold change vs veh, SH3YL1 / RFU, ZEB2 / Fold change vs veh, ZEB2 / RFU, NRIP1 / Fold change vs veh, NRIP1 / RFU, PTTG1IP / Fold change vs veh, PTTG1IP / RFU, CAPN2 / Fold change vs veh, CAPN2 / RFU, MED14 / Fold change vs veh, MED14 / RFU, SNORA58 / Fold change vs veh, SNORA58 / RFU, C1orf63 / Fold change vs veh, C1orf63 / RFU, LRRFIP1 / Fold change vs veh, LRRFIP1 / RFU, NDUFAF7 / Fold change vs veh, NDUFAF7 / RFU, SLC12A2 / Fold change vs veh, SLC12A2 / RFU, IBTK / Fold change vs veh, IBTK / RFU, ESF1 / Fold change vs veh, ESF1 / Fold change vs veh, TMEM50B / RFU, TAOK1 / Fold change vs veh, TAOK1 / RFU, ACBD3 / Fold change vs veh, ACBD3 / RFU, TMA16 / Fold change vs veh, TMA16 / RFU, RWDD3 / Fold change vs veh, RWDD3 / RFU, BCAT1 / Fold change vs veh, BCAT1 / RFU, EDEM3 / Fold change vs veh, EDEM3 / RFU, TMEM33 / Fold change vs veh, TMEM33 / RFU, WDR75 / Fold change vs veh, WDR75 / RFU, AHCTF1 / Fold change vs veh, AHCTF1 / RFU, TFRC / Fold change vs veh, TFRC / RFU, ZDHHC17 / Fold change vs veh, ZDHHC17 / RFU, NOM1 / Fold change vs veh, NOM1 / RFU, ARL8B / Fold change vs veh, ARL8B / RFU, ZBTB11 / Fold change vs veh, ZBTB11 / RFU, TAMM41 / Fold change vs veh, TAMM41 / RFU, KIAA1704 /// LOC100996395 / Fold change vs veh, KIAA1704 /// LOC100996395 / RFU, ING1 / Fold change vs veh, ING1 / RFU, TRMT61B / Fold change vs veh, TRMT61B / RFU, FUBP3 / Fold change vs veh, FUBP3 / RFU, TP53 / Fold change vs veh, TP53 / RFU, TNKS2 / Fold change vs veh, TNKS2 / RFU, ZFP14 / Fold change vs veh, ZFP14 / RFU, ACTR2 / Fold change vs veh, ACTR2 / RFU, PPP3R1 / Fold change vs veh, PPP3R1 / RFU, PIK3R1 / Fold change vs veh, PIK3R1 / RFU, HNRNPA1 / Fold change vs veh, HNRNPA1 / RFU, RNF170 / Fold change vs veh, RNF170 / RFU, ZNF28 / Fold change vs veh, ZNF28 / RFU, RNGTT / Fold change vs veh, RNGTT / RFU, OGT / Fold change vs veh, OGT / RFU, BRD1 / Fold change vs veh, BRD1 / RFU, MARS / Fold change vs veh, MARS / RFU, ZNF655 / Fold change vs veh, ZNF655 / RFU, FAHD1 / Fold change vs veh, FAHD1 / RFU, BDP1 / Fold change vs veh, BDP1 / RFU, LRRCC1 / Fold change vs veh, LRRCC1 / RFU, ARID1A / Fold change vs veh, ARID1A / RFU, ZNF146 / Fold change vs veh, ZNF146 / RFU, ZNF330 / Fold change vs veh, ZNF330 / RFU, GPN3 / Fold change vs veh, GPN3 / RFU, C9orf123 / Fold change vs veh, C9orf123 / RFU, N4BP2L2 / Fold change vs veh, N4BP2L2 / RFU, ARFIP1 / Fold change vs veh, ARFIP1 / RFU, FAM179B / Fold change vs veh, FAM179B / RFU, BCL10 / Fold change vs veh, BCL10 / RFU, UHRF1BP1L / Fold change vs veh, UHRF1BP1L / RFU, BET1 / Fold change vs veh, BET1 / RFU, CNOT2 / Fold change vs veh, CNOT2 / RFU, ZNF268 / Fold change vs veh, ZNF268 / Fold change vs veh, ZNF507 / RFU, DGCR2 / Fold change vs veh, DGCR2 / RFU, WDSUB1 / Fold change vs veh, WDSUB1 / Fold change vs veh, HSP90B1 /// MIR3652 / RFU, ADSS / Fold change vs veh, ADSS / RFU, GK / Fold change vs veh, GK / RFU, ZNF148 / Fold change vs veh, ZNF148 / RFU, TAF9 / Fold change vs veh, TAF9 / RFU, SLC1A5 / Fold change vs veh, SLC1A5 / RFU, SLMO2 / Fold change vs veh, SLMO2 / RFU, ABCC4 / Fold change vs veh, ABCC4 / RFU, LOC101060439 /// RAP1B / Fold change vs veh, LOC101060439 /// RAP1B / RFU, RFX7 / Fold change vs veh, RFX7 / RFU, GTPBP10 / Fold change vs veh, GTPBP10 / RFU, CNEP1R1 / Fold change vs veh, CNEP1R1 / RFU, BIVM-ERCC5 /// ERCC5 / Fold change vs veh, BIVM-ERCC5 /// ERCC5 / RFU, ILF3 / Fold change vs veh, ILF3 / RFU 11762660_at / Fold change /veh 11762660_at / RFU VCAN (11757783_s_at) / Fold change /veh VCAN (11757783_s_at) / RFU DDX43 (11728927_at) / Fold change /veh DDX43 (11728927_at) / RFU KRT8 (11758188_x_at) / Fold change /veh KRT8 (11758188_x_at) / RFU NKD1 (11759106_at) / Fold change /veh NKD1 (11759106_at) / RFU SRD5A1 (11742802_a_at) / Fold change /veh SRD5A1 (11742802_a_at) / RFU TPSAB1 /// TPSB2 (11721975_s_at) / Fold change /veh TPSAB1 /// TPSB2 (11721975_s_at) / RFU GSTM3 (11746129_a_at) / Fold change /veh GSTM3 (11746129_a_at) / RFU IL23R (11737362_x_at) / Fold change /veh IL23R (11737362_x_at) / RFU TMEM51 (11727254_a_at) / Fold change /veh TMEM51 (11727254_a_at) / RFU PIWIL2 (11732686_x_at) / Fold change /veh PIWIL2 (11732686_x_at) / RFU ORM1 (11744905_x_at) / Fold change /veh ORM1 (11744905_x_at) / RFU CCDC152 (11743942_at) / Fold change /veh CCDC152 (11743942_at) / RFU ECM1 (11717891_a_at) / Fold change /veh ECM1 (11717891_a_at) / RFU IL23R (11748794_a_at) / Fold change /veh IL23R (11748794_a_at) / RFU TNFAIP8L3 (11732012_x_at) / Fold change /veh TNFAIP8L3 (11732012_x_at) / RFU MBOAT4 (11741988_at) / Fold change /veh MBOAT4 (11741988_at) / RFU 11764193_at / Fold change /veh 11764193_at / RFU TMEM53 (11763286_at) / Fold change /veh TMEM53 (11763286_at) / RFU MAGEB2 (11727129_at) / Fold change /veh MAGEB2 (11727129_at) / RFU TMEM200A (11744735_a_at) / Fold change /veh TMEM200A (11744735_a_at) / RFU CCDC152 (11751479_a_at) / Fold change /veh CCDC152 (11751479_a_at) / RFU FAM211A (11726209_a_at) / Fold change /veh FAM211A (11726209_a_at) / RFU RGS16 (11746705_a_at) / Fold change /veh RGS16 (11746705_a_at) / RFU VCAN (11755009_s_at) / Fold change /veh VCAN (11755009_s_at) / RFU RHOB (11743442_s_at) / Fold change /veh RHOB (11743442_s_at) / RFU RGS16 (11720943_a_at) / Fold change /veh RGS16 (11720943_a_at) / RFU RGS16 (11720944_at) / Fold change /veh RGS16 (11720944_at) / RFU, VPS4B / Fold change vs veh, VPS4B / RFU, CREB1 / Fold change vs veh, CREB1 / RFU, DNAJC13 / Fold change vs veh, DNAJC13 / RFU, GNAQ / Fold change vs veh, GNAQ / RFU, CDK5R1 / Fold change vs veh, CDK5R1 / RFU, ZRANB3 / Fold change vs veh, ZRANB3 / RFU, CUL4A / Fold change vs veh, CUL4A / RFU, CCNY / Fold change vs veh, CCNY / RFU, UFL1 / Fold change vs veh, UFL1 / RFU, COG3 / Fold change vs veh, COG3 / RFU, DIAPH2 / Fold change vs veh, DIAPH2 / RFU, SKA2 / Fold change vs veh, SKA2 / RFU, AFF3 / Fold change vs veh, AFF3 / RFU, LMF1 / Fold change vs veh, LMF1 / RFU, IPO11 / Fold change vs veh, IPO11 / RFU, DFFB / Fold change vs veh, DFFB / RFU, FOXP1 / Fold change vs veh, FOXP1 / RFU, CARD8 / Fold change vs veh, CARD8 / RFU, STRN3 / Fold change vs veh, STRN3 / RFU, ADK / Fold change vs veh, ADK / RFU, RASSF2 / Fold change vs veh, RASSF2 / RFU, WIPF1 / Fold change vs veh, WIPF1 / RFU, LARP1B / Fold change vs veh, LARP1B / RFU, RASA1 / Fold change vs veh, RASA1 / RFU, RB1 / Fold change vs veh, RB1 / RFU, PPFIA1 / Fold change vs veh, PPFIA1 / RFU, MAT2A / Fold change vs veh, MAT2A / RFU, CCT5 / Fold change vs veh, CCT5 / RFU, WDR92 / Fold change vs veh, WDR92 / RFU, CUX1 / Fold change vs veh, CUX1 / RFU, TTC7A / Fold change vs veh, TTC7A / RFU, TMEM135 / Fold change vs veh, TMEM135 / RFU, DEPTOR / Fold change vs veh, DEPTOR / RFU, CPM / Fold change vs veh, CPM / RFU, DNAJB6 / Fold change vs veh, DNAJB6 / RFU, CACNA2D3 / Fold change vs veh, CACNA2D3 / RFU, DTX4 / Fold change vs veh, DTX4 / RFU, TFCP2 / Fold change vs veh, TFCP2 / RFU, GMCL1 /// GMCL1P1 / Fold change vs veh, GMCL1 /// GMCL1P1 / RFU, AEBP2 / Fold change vs veh, AEBP2 / RFU, SNHG1 /// SNORD22 /// SNORD25 /// SNORD26 /// SNORD27 /// SNORD28 /// SNORD29 /// SNORD31 / Fold change vs veh, SNHG1 /// SNORD22 /// SNORD25 /// SNORD26 /// SNORD27 /// SNORD28 /// SNORD29 /// SNORD31 / Fold change (Aza/veh), C12orf56 (ProbeSet 11735607_a_at) / Fold change (ACY-1035/veh), C12orf56 (ProbeSet 11735607_a_at) / Fold change (Aza/veh), FGFR1OP (ProbeSet 11751329_s_at) / Fold change (ACY-1035/veh), FGFR1OP (ProbeSet 11751329_s_at) / Fold change (Aza/veh), VPS36 (ProbeSet 11739960_a_at) / Fold change (ACY-1035/veh), VPS36 (ProbeSet 11739960_a_at) / RFU SYPL1 (11715823_x_at) / Fold change /veh SYPL1 (11715823_x_at) / RFU IGFBP7 (11715501_s_at) / Fold change /veh IGFBP7 (11715501_s_at) / RFU REEP3 (11722064_at) / Fold change /veh REEP3 (11722064_at) / RFU IGLL1 (11728026_x_at) / Fold change /veh IGLL1 (11728026_x_at): dose or concentration left out as unconfirmed
Conditions: ProbeSet 11716999_a_at; LIST D

Nc1ccc(-c2cccs2)cc1NC(=O)c1ccc2c(c1)cc(C1CC1)n2CCN1CCOCC1 [ACY-1035]
Fold change vs veh, RASA1: 0.84
